Experimental data as given in patent publication US5030427A, “Gallium purification” (Monsanto Company, priority 1988, dated 1991).

Experiment: Aqueous solubilities of N-alkylalkano and N-H hydroxamic acids (25° C.)
Format: physicochemical
Text: It is desirable that the extractant for metals have low solubility in water in order to avoid loss of extractant in aqueous media. In Table 1, the aqueous solubilities of a number of hydroxamic acids are reported.

## CCCCCCCCC(=O)N(C)O [N-methylnonanohydroxamic acid]
Aqueous media
  aqueous solubility (in words): relatively high aqueous solubility

## CCCCCCCCCC(=O)N(C)O [N-methyldecanohydroxamic acid]
aqueous, 25° C.
  SOLUBILITY (25° C.): 5.48 × 10^-4 molarity
